From patent US6897228B2, “Pyridoxine and pyridoxal analogues: new uses” (Medicure International Inc., priority 2000, dated 2005)

Legend:
[1] = test system: male Wistar rats, LAD occlusion and reperfusion; assay: Rat cardiac ischemia reperfusion model; type: in vivo
Method: Seventy-nine male Wistar rats (200-300 g, Tuck, Rayleigh, Essex, U.K.) were anesthetized with thiopentone sodium (Intraval®, 120 mg/kg i.p.; Rhone-Merrieux, Essex, U.K.). The rats were tracheotomized, intubated and ventilated with a Harvard ventilator (70 strokes/min, tidal volume: 8-10 ml/kg, inspiratory oxygen concentration: 30%). Body temperature was maintained at 38±1° C. The right carotid artery was cannulated and connected to a pressure transducer (Spectramed, P23XL) to monitor mean arterial blood pressure (MAP) and heart rate (HR), which were continuously recorded on a 4-channel Grass 7D polygraph recorder (Grass, Mass., U.S.A.). The right jugular vein was cannulated for the administration of drugs. Subsequently, a lateral thoracotomy was performed and the heart was suspended in a temporary pericardial cradle. A snare occluder was placed around the left anterior descending coronary artery (LAD). After completion of the surgical procedure the animals were allowed to stabilize for 30 min before LAD ligation. The coronary artery was occluded at time 0 by tightening of the occluder. After 25 min of acute myocardial ischemia, the occluder was re-opened to allow the reperfusion for 2 h. Following the 2 h reperfusion period, the coronary artery was re-occluded and Evans Blue dye (1 ml of 2% w/v) was injected into the left ventricle, via the right carotid artery cannula, to distinguish between perfused and non-perfused area at risk (AR) sections of the heart. The Evans Blue solution stains the perfused myocardium, while the occluded vascular bed remains uncolored. The animals were killed with an overdose of anesthetic and the heart excised. It was sectioned into slices of 3-4 mm, the right ventricular wall was removed, and the AR (pink) was separated from the non-ischemic (blue) area. The AR was cut into small pieces and incubated with p-nitroblue tetrazolium (NBT, 0.5 mg/ml) for 40 min at 37° C. In the presence of intact dehydrogenase enzyme systems (viable myocardium), nitro-blue tetrazolium (NBT) forms a dark blue formazan, whilst areas of necrosis lack dehydrogenase activity and therefore fail to stain. Pieces were separated according to staining and weighed to determine the infarct size as a percentage of the weight of the AR.
The following experimental groups were studied: • (1) Sham-operation (no occlusion of the LAD) plus administration of saline (Sham-Saline, 1 ml/kg i.v. n=9). • (2) LAD-occlusion (25 min) and reperfusion (2 h) plus administration of saline (myocardial infarction (“MI”)-Saline; 1 ml/kg i.v. bolus, 5 min prior to LAD occlusion) (n=10). • (3) LAD-occlusion and reperfusion plus administration of XL (25 mg/kg i.v. bolus at 5 min prior to LAD occlusion) (n=10).
All data were expressed as mean±s.e.mean of n observations, where n represented the number of animals studied. Infarct size was analyzed by 1-factorial ANOVA, followed by a Bonferroni's post hoc test for multiple comparisons. Hemodynamic data were analyzed by 2-way ANOVA followed by a Bonferroni's test. A P-value of less than 0.05 was considered to be statistically significant (when compared to Ml-Saline).

[2] = test system: Platelets from HIT patients; assay: Heparin-induced aggregation and ATP release of platelets from HIT patients; type: cell-based, human
Source text: XL was capable of inhibiting the aggregation of platelets drawn from patients known to have heparin induced thrombocytopenia (HIT). Platelets from HIT patients were challenged with 0.5 U/ml concentration of heparin in the presence and absence of drug. […] XL is useful as an antiplatelet treatment for HIT patients who cannot be administered heparin due to the immune reaction with heparin that leads to aggregation rather than thrombolysis.
Platelets were drawn from HIT patients and challenged with heparin to a final concentration of 0.5 U/ml of low molecular weight heparin, in the presence and absence of the drug. […] ATP was detected in a lumi aggregometor (Chronolog Corp.). A luciferin-luciferase mixture was used to detect ATP release. The luciferin-luciferase mixture was previously calibrated to a known amount of ATP. Thus a spike in ATP release indicated platelet aggregation. As shown by the data, HIT patents have a large amplitude release when there is no XL compound present. When XL compound is present it inhibits this characteristic release of ATP.
Low heparin is low molecular weight heparin and high heparin is unfractionated heparin. The presence of low molecular weight heparin will cause platelet aggregation. All samples were treated with a constant final concentration of heparin; 0.5 U/ml—low and 100 U/ml high. HIT causes platelet aggregation in the Low Concentration of Heparin only, as well as a ration of >5.0 when comparing the Low/High concentration of Heparin.

[3] = 25 mg/kg i.v. bolus t = −5 mins, Baseline
[4] = 25 mg/kg i.v. bolus, Occlusion 15 mins
[5] = 25 mg/kg i.v. bolus, Occlusion 25 mins
[6] = 25 mg/kg i.v. bolus, Reperfusion 60 mins
[7] = 25 mg/kg i.v. bolus, Reperfusion 120 mins

Cc1ncc(CNc2ccc(-c3ccc(C(=N)N)cc3)cc2)c(CO)c1O [Compound XL]
HR (heart rate) [1, 3]: 443 ± 9 beats per min | MAP (mean arterial pressure) [1, 3]: 121 ± 7 mmHg | PRI (pressure rate index) [1, 3]: 54 ± 3 mmHg/min · 10^−3 | infarct size (percentage of the area at risk) ([1]; 25 mg/kg i.v. bolus, 5 minutes before regional ischemia, P<0.05, MI-Saline 48±3% of the AR): significant reduction | HR (heart rate) [1, 4]: 435 ± 11 beats per min | MAP (mean arterial pressure) [1, 4]: 119 ± 6 mmHg | PRI (pressure rate index) [1, 4]: 52 ± 3 mmHg/min · 10^−3 | HR (heart rate) [1, 5]: 460 ± 10 beats per min | MAP (mean arterial pressure) [1, 5]: 118 ± 6 mmHg | PRI (pressure rate index) [1, 5]: 55 ± 3 mmHg/min · 10^−3 | HR (heart rate) [1, 6]: 412 ± 10 beats per min | MAP (mean arterial pressure) [1, 6]: 89 ± 8 mmHg | PRI (pressure rate index) [1, 6]: 36 ± 3 mmHg/min · 10^−3 | HR (heart rate) [1, 7]: 414 ± 13 beats per min | MAP (mean arterial pressure) [1, 7]: 70 ± 7 mmHg | PRI (pressure rate index) [1, 7]: 29 ± 3 mmHg/min · 10^−3 | fall in MAP compared with MI-rats treated with Saline ([1]; 25 mg/kg i.v., P>0.05): similar | fall in PRI compared with MI-rats treated with Saline ([1]; 25 mg/kg i.v., P>0.05): similar | effect on HR ([1]; rats subjected to regional myocardial ischemia and reperfusion, P>0.05): no significant effect | effects of heparin induced thrombocytopenia (HIT) ([2]; 500 micromolar): completely suppress | aggregation of platelets from HIT patients ([2]; 500 micromolar, 0.5 U/ml heparin): completely suppress | Amplitude of ATP release spike (low Heparin) ([2]; Patient 1, 500 μM, 0.5 U/ml low heparin, without drug 363): 14 | Ratio of Low/High Heparin ([2]; Patient 1, 500 μM, without drug 42.4, HIT ratio >5.0): 1.9 | Aggregation (Low Heparin) ([2]; Patient 1, 500 μM, without drug Present): Absent | Aggregation (Low Heparin) ([2]; Patient 1, 2 mM): Absent | Amplitude of ATP release spike (low Heparin) ([2]; Patient 1, 2 mM): 28 | Ratio of Low/High Heparin ([2]; Patient 1, 2 mM): 2.7 | Ratio of Low/High Heparin ([2]; Patient 2, 500 μM, without drug 37.6): 1.6 | Amplitude of ATP release spike (low Heparin) ([2]; Patient 2, 500 μM, without drug 286): 11 | Aggregation (Low Heparin) ([2]; Patient 2, 500 μM, without drug Present): Absent | Aggregation (Low Heparin) ([2]; Patient 2, 2 mM): Absent | Amplitude of ATP release spike (low Heparin) ([2]; Patient 2, 2 mM): 12 | Ratio of Low/High Heparin ([2]; Patient 2, 2 mM): 1.6 | characteristic release of ATP of HIT platelets ([2]; heparin challenge, lumi aggregometer): inhibits
